Test [1] has as its system SH-SY5Y cells. Conditions: cited from earlier work. The text has this: (§1) Earthworm is used in traditional Chinese medicine as an animal-derived remedy. Its protein content and amino acid composition are better than those of fish, cow milk, and soybean meal. […] Moreover, its essential amino acid utilization rate is higher in the body and is more readily assimilated by the human system. Therefore, it is used as a supplement in animal feed and human food. Earthworm has been recorded in the Chinese medical classics of “ ...

Test [2] deals with T1, PINK1 (Tribolium castaneum, UniProt D6WMX4).
T1 construct: made in house
T1 sequence (D6WMX4 6-570): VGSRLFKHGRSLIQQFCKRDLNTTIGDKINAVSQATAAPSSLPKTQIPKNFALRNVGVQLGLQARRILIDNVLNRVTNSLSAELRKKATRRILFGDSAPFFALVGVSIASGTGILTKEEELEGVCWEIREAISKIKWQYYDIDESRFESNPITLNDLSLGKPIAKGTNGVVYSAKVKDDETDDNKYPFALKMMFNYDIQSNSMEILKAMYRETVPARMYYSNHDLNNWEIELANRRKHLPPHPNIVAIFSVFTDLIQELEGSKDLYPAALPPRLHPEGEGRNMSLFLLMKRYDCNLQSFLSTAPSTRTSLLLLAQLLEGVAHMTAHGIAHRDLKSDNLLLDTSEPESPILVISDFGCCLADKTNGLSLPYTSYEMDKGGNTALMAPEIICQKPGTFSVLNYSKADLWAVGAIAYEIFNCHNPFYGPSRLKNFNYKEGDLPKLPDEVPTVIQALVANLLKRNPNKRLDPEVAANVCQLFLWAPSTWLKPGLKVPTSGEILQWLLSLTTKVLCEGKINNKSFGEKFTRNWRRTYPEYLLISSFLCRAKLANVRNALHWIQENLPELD
The test can be described thus: biochemical. Type of test: biochemical. Conditions: for PINK1 agonistic rate: 100 μM. The protocol:
The earthworms (Lumbricus terrestris) were purchased from Beijing Tongrentang Co., Ltd. (Chengdu, China). They were dried by the supplier through sun-drying and stored at 4 °C. The shelf life is one year. Rasagiline was purchased from Aladdin Biochemical Technology Co., Ltd. (Shanghai, China). Resveratrol was purchased from Pusi Biotechnology Co., Ltd. (Chengdu, China). The SH-SY5Y cells were obtained from the National Collection of Authenticated Cell Cultures (Shanghai, China). […] Dulbecco’s modified Eagle’s medium/Ham’s F-12 (DMEM/F12), fetal bovine serum (FBS), and phosphate-buffered saline (PBS) were purchased from Biological Industries (Kibbutz Beit HaEmek, Israel). Fluorescein diacetate (FDA), propidium iodide (PI) staining and mitochondrial membrane potential test kit (JC-1) were purchased from Beijing Solarbio Science & Technology Co., Ltd. (Beijing, China). Cell Counting Kit-8 (CCK-8) was purchased from Bimake Co., Ltd. (Shanghai, China). PrimeScript RT reagent kit and PerfectStart Green PCR Master Mix were purchased from TransGen Biotech (Beijing, China). […] The Kinase-Lumi™ Luminescent Kinase Assay Kit and ATP Assay Kit were purchased from Beyotime Biotechnology Co., Ltd. (Wuhan, China). The Insect dopamine (DA) ELISA Kit was purchased from Jiangsu Meimian Industrial Co., Ltd. (Yancheng, Jiangsu, China). HPLC-grade methanol was supplied by XLJ (Yunnan, China). Ultrapure water used in the experiment was prepared using a UP water purification (18.25 MΩ) system (Chengdu, China). Unless otherwise specified, chemicals and solvents were purchased from Kelong Chemical Reagents Factory (Chengdu, China).
The PINK1 activity assay was conducted with certain modifications based on the described by. Ubiquitin is a potent substrate for PINK1, which catalyzes the phosphorylation of ubiquitin while consuming ATP [33]. During the reaction, the consumption of ATP is associated with PINK1 activity. […] The enzymatic reaction was conducted on a white 96-well plate, with all samples dissolved in a buffer solution containing 50 mM Tris-HCl (pH = 7.5), 0.1 mM EDTA, 10 mM MgCl2, and 4% 2-hydroxy-1-ethanethiol. Subsequently, 10 μL of peptide sample, 10 μL of PINK1 (6.8 μM), 10 μL of ubiquitin (0.002 pg/mL), and 20 μL of ATP (10 μM) were added to the plate for incubation at a temperature of 25 °C for a duration of ten minutes. In addition, the blank control group replaces the peptide with a buffer solution. The resveratrol was employed as a positive control. The amount of ATP consumed was detected using the Kinase-Lumi™ Luminescent Kinase Assay Kit. The PINK1 agonistic rate was calculated by the following equation:(1) PINK1 agonistic rate (%)=(1−A−B/C−D)×100% where A represents the absorbance of the sample group consisting of the sample, PINK1, ubiquitin, and ATP; B represents the absorbance of the sample control group consisting of the sample, PINK1, and ubiquitin; C represents the absorbance of the control group consisting of PINK1, ubiquitin, and ATP; D represents the absorbance of the blank control group consisting of PINK1 and ubiquitin. The EC50 of each peptide was calculated using GraphPad Prism, version 10.0.2 software.

Test [3] deals with PINK1^B9 flies. The test can be described thus: Lifespan of PINK1^B9 flies. Type of test: in vivo, Drosophila. Conditions: 1 mM in medium, male flies.
Protocol: The flies were cultured on a conventional fly medium under controlled conditions of 25 ± 1 °C and 60% relative humidity. The traditional medium for cultivating flies was prepared by boiling 90 g of yeast, 240 g of corn flour, 32 g of agar, 189 g of glucose, and 98 g of sucrose, as well as adding a preservative solution consisting of 25 mL of a 10% methyl-4-hydroxybenzoate in distilled water to make a final volume of 3.5 L. The experimental medium was prepared by supplementing formula 4–24 instant Drosophila medium (Carolina Biological Supply Company, Burlington, NC, USA) with a concentration of 0.1 mM peptide. Male individuals of both wild-type (WT) and PINK1^B9 flies were collected for subsequent experiments.
The newly hatched male WT flies and male PINK1^B9 mutants were collected simultaneously, followed by their division into four groups with 4 bottles per group and 40 flies per bottle. The first group was provided with WT flies and fed with formula 4–24 instant drosophila medium. The second group consisted of PINK1^B9 flies and was also fed with formula 4–24 instant drosophila medium. The third group comprised PINK1^B9 flies and received formula 4–24 instant drosophila medium supplemented with 0.1 mM peptide. […] Fresh medium was replaced every 2–3 days, while the number of flies was recorded daily.
The test system of test [4] is PINK1^B9 flies. Set-up: method as in PMID 30248358. As to conditions: cited from earlier work.
Test [5] deals with MPP^+-damaged SH-SY5Y cells. The test can be described thus: CCK-8 viability, neuroprotection of MPP+-damaged SH-SY5Y cells. The format is cell-based, human. As to conditions: 100 μM. The protocol: The SH-SY5Y human neuroblastoma cell line is extensively employed as a prominent cellular model for PD [31]. The neuroprotective effect of earthworm peptides against the MPP^+-damaged SH-SHY5Y cell model was evaluated using the CCK-8 method. First, the SH-SHY5Y cells were cultured in DMEM/F12 medium supplemented with 10% fetal bovine serum (FBS) and 1% penicillin–streptomycin, and they were maintained at a temperature of 37 °C with a CO2 concentration of 5% in a humidified atmosphere. The SH-SHY5Y cells were seeded into 96-well plates at a density of 1 × 10^4 cells per well, followed by incubation at 37 °C for 24 h. Subsequently, the initial medium was carefully aspirated. The peptide samples were dissolved in DMSO to prepare a high-concentration stock solution and then diluted to the required concentration (10, 25, 50, 100, and 150 μM), prepared using a medium, where they were subsequently introduced into the well and incubated at 37 °C for a duration of 2 h. Then, the cells were treated with MPP^+ (2 mM) per well for an additional 24 h. […] Following the completion of the experiment, the 96-well plate was extracted, and the absorbance was measured at 450nm by the […] GO spectrophotometric plate reader (Thermo Scientific, Waltham, MA, USA). The data were analyzed using GraphPad Prism, version 6.0.

The test system of test [6] is inflammatory enzymes. As to conditions: in vitro and in vivo; cited from earlier work.
Excerpt: as §1

In test [7] the target is PTEN-induced putative kinase 1 (PINK1) (UniProt D6WMX4).
Where [8] appears, read: ubiquitin substrate, 10 μM ATP, pH 7.5 Tris-HCl, 25 °C, 10 min, residual ATP luminescence, mean ± SD (n = 3).

Where two headings read alike, the source gives them in different places. No end group written: not given here.

In general, EC50 refers to the midpoint of the concentration-response curve.

As for “RNRRWCIDQQA [lumbricusin, antimicrobial peptide derived from earthworm]”, in test [1] (SH-SY5Y), the “apoptosis and decreased viability induced by MPP^+” value was “inhibits”. In addition, the SH-SY5Y cell proliferation entry in test [1] is “promotes”.
Molecule `Oc1ccc(/C=C/c2cc(O)cc(O)c2)cc1` [Resveratrol, resveratrol] registered a PINK1 agonistic rate in test [2] (setting [8]) of 91.45 ± 0.34%. For the same molecule, the EC50 in test [2] (ubiquitin substrate, 10 μM ATP, pH 7.5 Tris-HCl, 25 °C, 10 min, residual ATP luminescence, mean ± SD (n = 3), read-out: EC50, PINK1 agonistic activity) worked out at 13.8 ± 0.58 µM. The “lifespan extension of PINK1^B9 flies” value in test [3] was found to be 23.33%. The “lifespan of PINK1^B9 flies (in words)” value in test [4] (0.2 mM resveratrol) is given as “no significant effect”; in test [4] (1 mM resveratrol), “effective in extending the lifespan”.
In the case of “AGFAGDDAPR [peptide identified from earthworm (Lumbricus terrestris), synthesized by solid phase]”, the PINK1 agonistic rate in test [2] (setting [8]) was 33.45 ± 0.45%.
For “ILLIILI [peptide identified from earthworm (Lumbricus terrestris), synthesized by solid phase]”, the PINK1 agonistic rate in test [2] (setting [8]) came out at 17.16 ± 0.55%.
Consider AVFPSIVGR, for which, in test [5] (2 h pre-incubation, then 2 mM MPP^+ 24 h, 37 °C, CCK-8, absorbance 450 nm, n = 3), the “cell viability (restored to)” value worked out at 68.77%. Further, in test [2], the midpoint of the response, the EC50, lay at 88.5 ± 0.97 µM. The PINK1 agonistic rate in test [2] (setting [8]) came to 50.35 ± 0.72%.
With GYSFTTTAER, the “cell viability (restored to)” value in test [5] (2 h) is 70.08%. This molecule returned an EC50 in test [2] of 76.8 ± 1.3 µM. The molecule also returned a PINK1 agonistic rate in test [2] (setting [8]) of 52.46 ± 0.96%.
As for QLICWRRFR [LumA5, lumbricusin analog 5], the “viability of SH-SY5Y cells” value in test [1] is “improved”. Moreover, the “expression of lip-induced inflammatory enzymes” value in test [6] was “significantly reduce”.
In test [7], GYSFTTTAER displayed an EC50 of PINK1 agonistic activity; ATP consumed by purified PINK1 with ubiquitin as substrate (Kinase-Lumi luminescent kinase assay) of 76.8 µM and a PINK1 agonistic rate (%) at 100 μM peptide; ATP consumed by purified PINK1 with ubiquitin as substrate (Kinase-Lumi luminescent kinase assay) of 52.5%.
ILLIILI had a PINK1 agonistic rate (%) at 100 μM peptide; ATP consumed by purified PINK1 with ubiquitin as substrate (Kinase-Lumi luminescent kinase assay) in test [7] of 17.2%.
In test [7], AVFPSIVGR had an EC50 of PINK1 agonistic activity; ATP consumed by purified PINK1 with ubiquitin as substrate (Kinase-Lumi luminescent kinase assay) of 88.5 µM and a PINK1 agonistic rate (%) at 100 μM peptide; ATP consumed by purified PINK1 with ubiquitin as substrate (Kinase-Lumi luminescent kinase assay) of 50.4%.
For the molecule AGFAGDDAPR, the PINK1 agonistic rate (%) at 100 μM peptide; ATP consumed by purified PINK1 with ubiquitin as substrate (Kinase-Lumi luminescent kinase assay) in test [7] is 33.5%.

Source of the values: PMC12074337, “Isolation and Characterization of Earthworm Peptides with Neuroprotective Effects in Parkinson’s Disease Models” (Molecules, 2025).
